Reference: article PMC6950218 (Journal of Medicinal Chemistry, 2011)
Where two headings read alike, the source gives them in different places. Each block holds one molecule with its values, some of them ahead of it.

What was measured:
[1] = system: Caco-2; details: for Caco-2 A–B: apical to basolateral; for Caco-2 B–A: basolateral to apical
[2] = system: Huh7; experiment: Cytotoxicity Huh7; assay type: cell-based
[3] = system: P. falciparum strain W2; experiment: Antimalarial proliferation inhibition assay; assay type: cell-based, Plasmodium falciparum; details: mean of at least two experiments
[4] = system: P. falciparum strain 3D7; experiment: Antimalarial proliferation inhibition assay; assay type: cell-based, Plasmodium falciparum; details: for IC50: mean of at least two experiments
[5] = Micronucleus test
[6] = system: Ba/F3; experiment: Cytotoxicity Ba/F3; assay type: cell-based
[7] = system: HeLa; experiment: Cytotoxicity HeLa; assay type: cell-based
[8] = mini-Ames test
[9] = system: CHO; experiment: Cytotoxicity CHO; assay type: cell-based
[10] = system: HEp2; experiment: Cytotoxicity HEp2; assay type: cell-based
[11] = not given; remark: listed apart in the source
[12] = not given; remark: listed apart in the source
[13] = not given; remark: listed apart in the source
[14] = Maximum tolerable dose test in rats; details: rats in vivo
[15] = resynthesized powders (data in brackets)
[16] = Plasmodium falciparum, W2, read-out: P. falciparum strain IC50 W2, resynthesized powders (data in brackets)
[17] = Plasmodium falciparum, 3D7, read-out: P. falciparum strain IC50 3D7, resynthesized powders (data in brackets)

PAMPA (% absorbed): 52 % absorbed
Caco-2 A–B [1]: 0.44 cm/s × 10^6
Caco-2 B–A [1]: 1.25 cm/s × 10^6
Molecule: NCC(=O)N1CCn2c(nc(-c3ccc(F)cc3)c2Nc2ccc(Cl)cc2)C1 [Compound 27, 2-Amino-1-(3-(4-chlorophenylamino)-2-(4-fluorophenyl)-5,6-dihydroimidazo[1,2-a]pyrazin-7(8H)-yl)ethanone]

Molecule: NC(Cc1ccccc1)C(=O)N1CCn2c(nc(-c3ccccc3)c2Nc2ccc3c(c2)OCO3)C1 (stereo not drawn) [Compound 1b, 2-Amino-1-(3-(benzo[d][1,3]dioxol-5-ylamino)-2-phenyl-5,6-dihydroimidazo[1,2-a]pyrazin-7(8H)-yl)-3-phenylpropan-1-one]
cyotoxicity Huh7 ([2]; HTS DMSO stock solutions): > 10 µM
cyotoxicity Huh7 [2, 15]: > 79 µM
IC50 [3, 16]: 122 nM
IC50 [4, 17]: 119 nM

PAMPA (% absorbed): 52 % absorbed
Caco-2 A–B [1]: 0.70 cm/s × 10^6
Caco-2 B–A [1]: 2.55 cm/s × 10^6
Molecule: NCC(=O)N1CCn2c(nc(-c3ccc(F)cc3)c2Nc2ccc(F)cc2)C1 [Compound 5, 2-Amino-1-(2-(4-fluorophenyl)-3-(4-fluorophenylamino)-5,6-dihydroimidazo[1,2-a]pyrazin-7(8H)-yl)ethanone]
fold more potent than the original hit compound 1a [4]: 4 fold

Molecule: NCC(=O)N1CCn2c(nc(-c3ccccc3)c2Nc2ccc3c(c2)OCO3)C1 [Compound 1a, 2-Amino-1-(3-(benzo[d][1,3]dioxol-5-ylamino)-2-phenyl-5,6-dihydroimidazo[1,2-a]pyrazin-7(8H)-yl)ethanone]
cyotoxicity Huh7 ([2]; HTS DMSO stock solutions): > 10 µM
cyotoxicity Huh7 [2, 15]: > 100 µM
IC50 [3, 16]: 473 nM
IC50 [4, 17]: 460 nM

PAMPA (% absorbed): 86 % absorbed
Caco-2 A–B [1]: 0.14 cm/s × 10^6
Caco-2 B–A [1]: 1.03 cm/s × 10^6
Molecule: CC(C)(N)C(=O)N1CCn2c(nc(-c3ccc(F)cc3)c2Nc2ccc(F)c(F)c2)C1 [Compound 30, 2-Amino-1-(3-(3,4-difluorophenylamino)-2-(4-fluorophenyl)-5,6-dihydroimidazo[1,2-a]pyrazin-7(8H)-yl)-2-methylpropan-1-one]
micronucleus test [5]: negative
cytotoxicity TC50 Ba/F3 [6]: greater than 12 μM
cytotoxicity TC50 Huh7 [2]: greater than 12 μM
cytotoxicity TC50 HeLa [7]: greater than 12 μM
mini-Ames test [8]: negative
cytotoxicity TC50 CHO [9]: greater than 12 μM
cytotoxicity TC50 HEp2 [10]: greater than 12 μM

PAMPA (% absorbed): 89 % absorbed
Caco-2 A–B [1]: 1.46 cm/s × 10^6
Caco-2 B–A [1]: 1.86 cm/s × 10^6
Molecule: CC(C)(N)C(=O)N1CCn2c(nc(-c3ccc(F)cc3)c2Nc2ccc(Cl)cc2)C1 [Compound 28, 2-Amino-1-(3-(4-chlorophenylamino)-2-(4-fluorophenyl)-5,6-dihydroimidazo[1,2-a]pyrazin-7(8H)-yl)-2-methylpropan-1-one]

hepatic microsome metabolic stability (extraction ratio) rat [11]: 0.38
PAMPA (% absorbed): low
hepatic microsome metabolic stability (extraction ratio) human [12]: 0.21
Caco-2 A–B [1]: 0.99 cm/s × 10^6
Caco-2 B–A [1]: 2.99 cm/s × 10^6
hepatic microsome metabolic stability (extraction ratio) mouse [13]: 0.21
Molecule: 3-Amino-1-(2-(4-fluorophenyl)-3-(4-fluorophenylamino)-5,6-dihydroimidazo[1,2-a]pyrazin-7(8H)-yl)propan-1-one [Compound 29]
IC50 ([3]; read-out: P. falciparum strain IC50 W2): 23 nM
IC50 ([4]; read-out: P. falciparum strain IC50 3D7): 30 nM

Molecule: CC(C)(N)C(=O)N1CCn2c(nc(-c3ccc(F)cc3)c2Nc2ccc(F)cc2)C1 [Compound 11, 2-Amino-1-(2-(4-fluorophenyl)-3-(4-fluorophenylamino)-5,6-dihydroimidazo[1,2-a]pyrazin-7(8H)-yl)-2-methylpropan-1-one]
maximum tolerable dose test [14]: no gross effects at doses up to 500 mg/kg
cytotoxicity TC50 Huh7 [2]: greater than 12 μM
cytotoxicity TC50 HeLa [7]: greater than 12 μM
cytotoxicity TC50 CHO [9]: greater than 12 μM
cytotoxicity TC50 HEp2 [10]: greater than 12 μM
PAMPA (% absorbed): 81 % absorbed
Caco-2 A–B [1]: 3.05 cm/s × 10^6
Caco-2 B–A [1]: 8.38 cm/s × 10^6

PAMPA (% absorbed): low
Caco-2 A–B [1]: 0.56 cm/s × 10^6
Caco-2 B–A [1]: 2.32 cm/s × 10^6
Molecule: NCC(=O)N1CCn2c(nc(-c3cccc(F)c3)c2Nc2ccc(F)cc2)C1 [Compound 18, 2-Amino-1-(3-((4-fluorophenyl)amino)-2-(3-fluorophenyl)-5,6-dihydroimidazo[1,2-a]pyrazin-7(8H)-yl)ethanone]

Molecule: CC(C)CC(N)C(=O)N1CCn2c(nc(-c3ccccc3)c2Nc2ccc3c(c2)OCO3)C1 (stereo not drawn) [Compound 1c, 2-Amino-1-(3-(benzo[d][1,3]dioxol-5-ylamino)-2-phenyl-5,6-dihydroimidazo[1,2-a]pyrazin-7(8H)-yl)-4-methylpentan-1-one]
cyotoxicity Huh7 ([2]; HTS DMSO stock solutions): > 10 µM
cyotoxicity Huh7 [2, 15]: 42 µM
IC50 [3, 16]: 29 nM
IC50 [4, 17]: 30 nM

PAMPA (% absorbed): 94 % absorbed
Caco-2 A–B [1]: 0.84 cm/s × 10^6
Caco-2 B–A [1]: 0.87 cm/s × 10^6
Molecule: CC(C)(N)C(=O)N1CCn2c(nc(-c3ccc(F)cc3)c2Nc2ccc(Cl)c(F)c2)C1 [Compound 32, 2-Amino-1-(3-(4-chloro-3-fluorophenylamino)-2-(4-fluorophenyl)-5,6-dihydroimidazo[1,2-a]pyrazin-7(8H)-yl)-2-methylpropan-1-one]
